The results in this text go back to patent US20240174714A1, “TREATMENT OF SKIN DISORDERS” (priority 2021, published 2024).

For data set [1], the system named is Staphylococcus aureus ATCC 33591. Kind of data set: microbe, parasite or virus in culture. Conditions: ATCC 33591, Methicillin resistant; 6027 acetate. Format: cell-based.
For data set [2], the system named is Staphylococcus aureus NARSA NRS382. The experiment in a line: microbe, parasite or virus in culture. Conditions: NARSA NRS382. Format: cell-based.
Data set [3] deals with Staphylococcus aureus NARSA NRS127. The experiment in a line: microbe, parasite or virus in culture. Format: cell-based. Conditions: NARSA NRS127.
Data set [4] deals with Clostridium difficile ATCC BAA-1805. Conditions: RCM, anaerobic, 2 days at 36° C., 6027 acetate.
Experimental: The antibacterial activity of inventive compounds was determined in duplicate in a Minimum Inhibitory Concentration (MIC) assay.
The antibacterial activity of 6027 acetate was measured using the in vitro broth microdilution assay under assay conditions described by the Clinical and Laboratory Standards Institute. […] Pre-formulated DMSO stock solution (26.67 mg/mL) was provided by sponsor. The 26.67 mg/mL stock solution was then diluted in DMSO to prepare a 6.4 mg/mL working stock solution. The 6.4 mg/mL working stock solution was diluted by 2-fold serial titrations in DMSO, for a total of 11 test concentrations. A 4 μl aliquot of each dilution was added to 196 of broth medium seeded with the organism suspension in wells of a 96 well plate (bacterial count: 2 −8×10^5 colony forming units/mL final). The final volume was 200 μl in each well and the final DMSO concentration was 2 percent. Test concentrations were 128 to 0.125 μg/mL.
Following incubation, the plates were visually examined, and wells were scored for growth or complete growth inhibition to define the minimum inhibitory concentration. […] Vehicle-control and Vancomycin or Linezolid, as depicted at Table 8, were used as blank and positive controls, respectively.
Data set [5] concerns Leishmania mexicana (MNYC/BZ/62/m379). The experiment in a line: In vivo model of cutaneous leishmaniasis, rump back model in C67BLC/6 mice. Conditions: 20 μl 0.1% w/v in DMSO topically bid for 14 days. An excerpt: Mice. C67BLC/6 female mice were purchased from Envigo (Harlan laboratories) Indianapolis, IN, USA. 129SVE female mice were purchased from Taconic Farms, Cambridge City, IN, USA. All experimental mice were maintained at an OSU-ULAR facility in compliance with OSUIACUC.
Parasites and infection. L. mexicana (MNYC/BZ/62/m379) parasites were obtained and maintained as described previously. Promastigotes were maintained, passaged, and subsequently injected into experimental mice (5×10^6 parasites) subcutaneously into their shaven rumps. C67BLC/6 mice were infected with L. mexicana parasites for 6 weeks after which they developed lesions on their back rumps. Mice with similar lesion sizes were selected and randomized into control and treatment groups. From the beginning of treatment animals were housed individually.
Treatment. Treatment group received 20 μl of ZHAW6027 0.1% weight by volume in DMSO, twice a day (bid) for 14 days. […]
Topical drug treatments and lesion measurements. Lesion sizes were measured by using a small animal caliper twice weekly over the 14-day treatment duration and the area of the lesion was calculated by L×W, where L is the length and W is the width. […]
Quantitation of parasitic load. After 2 weeks of treatment animals were sacrificed, and the parasite load in the lesions was quantified. […] Viability of parasites was determined at 10 days of parasite culture. […]

Data set [6] has as its system Staphylococcus aureus NARSA NRS22. Kind of data set: microbe, parasite or virus in culture. Format: cell-based.
The nature of data set [7]: Cytotoxicity assay (Alamar Blue) on L6-cells. Format: cell-based, rat. Conditions: rat. How it is done: Tests were done in triplicate.
The plates were incubated for additional 2 h.

In data set [8] the test system is Staphylococcus aureus ATCC BAA-1556, USA300 MRSA. Kind of data set: microbe, parasite or virus in culture. Format: cell-based. Conditions: ATCC BAA-1556. How it is done: Pre-formulated compound solution was diluted in 100% DMSO to prepare a 1.6 mg/mL working stock solution. […] The concentration range was 0.032 to 32 μg/mL.
Data set [9] deals with Staphylococcus aureus NARSA NRS383. The experiment in a line: microbe, parasite or virus in culture. The class given is cell-based. Conditions: NARSA NRS383.
The subject of data set [10] is Trichophyton rubrum (ATCC 10218). The class given is cell-based. On the procedure:
(§1) Pre-formulated compound solution was diluted in 100% DMSO to prepare a 1.6 mg/mL working stock solution. […] Test concentration range was 0.032 to 32 μg/mL.
(§2) Vehicle-control and an active reference agent were used as blank and positive controls.

Data set [11] deals with Trichophyton mentagrophytes (ATCC 9533). The class given is cell-based. On the procedure:
as §1, §2

In data set [12] the test system is Staphylococcus aureus ATCC BAA-1556. Kind of data set: microbe, parasite or virus in culture. Format: cell-based. Conditions: ATCC BAA-1556.
In data set [13] the test system is Staphylococcus aureus ATCC BAA-1717. The experiment in a line: microbe, parasite or virus in culture. Conditions: ATCC BAA-1717, Methicillin resistant; CAMHB II, 1 day at 36° C.; 6027 acetate. The class given is cell-based.
Data set [14] concerns Staphylococcus aureus NARSA VRS2. Kind of data set: microbe, parasite or virus in culture. Format: cell-based.
Data set [15] deals with Streptococcus agalactiae ATCC 12386. Kind of data set: MIC broth microdilution, method 1. Format: cell-based. Conditions: CAMHB II, 5% LHB, 1 day at 36° C., 6027 acetate. On the technique in general: Dilution methods test growth across graded concentrations, often in twofold steps.
Data set [16] has as its system Staphylococcus aureus ECL 2963646. The experiment in a line: microbe, parasite or virus in culture. The class given is cell-based.
The test system of data set [17] is Staphylococcus aureus ATCC 29213. Kind of data set: MIC broth microdilution, method 1. The class given is cell-based. Conditions: CAMHB II, 1 day at 36° C., 6027 acetate.
The subject of data set [18] is Staphylococcus aureus ATCC 43300, MRSA. Format: cell-based. Conditions: ATCC 43300, 18 h. On the procedure: The antibacterial activity of inventive compounds was evaluated in duplicate in a further Minimum Inhibitory Concentration (MIC) assay.
Bacteria were cultured in Cation-adjusted Mueller Hinton broth (CAMHB) at 37° C. overnight. A sample of each culture was then diluted 40-fold in fresh broth and incubated at 37° C. for 1.5-3 h. The resultant mid-log phase cultures were diluted (CFU/mL measured by OD600), then added to each well of the compound containing plates, giving a cell density of 5×10^5 CFU/mL and a total volume of 50 μL. All the plates were covered and incubated at 37° C. for 18 h without shaking.
Samples were prepared in DMSO and serially diluted 2 fold 8 times. Each sample concentration was prepared in 384-well plates, non-binding surface plate (NBS; Corning 3640) for the bacterial strain ATCC 43300, MRSA. The final DMSO concentration was at a maximum of 0.5%.
Inhibition of bacterial growth was determined measuring absorbance at 600 nm (OD600), using a Tecan M1000 Pro monochromator plate reader. The percentage of growth inhibition was calculated for each well, using the negative control (media only) and positive control (bacteria without inhibitors) on the same plate as references. […] Vancomycin was used as positive bacterial inhibitor standards.

The subject of data set [19] is Streptococcus pyogenes ATCC 19615. The experiment in a line: MIC broth microdilution, method 1. Format: cell-based. Conditions: CAMHB II, 5% LHB, 1 day at 36° C., 6027 acetate.

≈ marks a conversion by molar mass, not a printed value. Square brackets hold non-standard residues; d marks the D form. Peptide text beside a SMILES is read from it. * marks the point of attachment. NH(1-CH2NMe2-cBu) = CN(C)CC1(N*)CCC1; Benzoyl(4-F) = O=C(c1ccc(F)cc1)*; hCha = N[C@@H](CCC1CCCCC1)C(=O)O; Aib = CC(C)(N)C(=O)O; βAla = NCCC(=O)O

Regarding `CC(C)C[C@H](NC(=O)[C@H](CCC1CCCCC1)NC(=O)[C@@H]1CCCN1C(=O)c1ccc(F)cc1)C(=O)NC(C)(C)C(=O)N[C@@H](CC(C)C)C(=O)N[C@@H](CC(C)C)C(=O)NC(C)(C)C(=O)NC(C)(C)C(=O)NCCC(=O)NC1(CN(C)C)CCC1` [Compound 6027, (2S)-2-[(2S)-4-cyclohexyl-2-{[(2S)-1-(4-fluorobenzoyl)pyrrolidin-2-yl]formamido}butanamido]-N-(1-{[(1S)-1-{[(1S)-1-({1-[(1-{[2-({1-[(dimethylamino)methyl]cyclobutyl}carbamoyl)ethyl]carbamoyl}-1-methylethyl)carbamoyl]-1-methylethyl}carbamoyl)-3-methylbutyl]carbamoyl}-3-methylbutyl]carbamoyl}-1-methylethyl)-4-methylpentanamide] ({Benzoyl(4-F)}-P[hCha]L[Aib]LL[Aib][Aib][βAla]-{NH(1-CH2NMe2-cBu)}), the “MIC of 6027” value in data set [1] came out at 4 µg/mL; in data set [2], 1 µg/mL; in [3] it was 2 µg/mL; in data set [4], 0.25 µg/mL; in data set [6] it was 2 µg/mL; in data set [9] it was 2 µg/mL. Also, the “MIC of 6027” value in data set [12] was found to be 2 µg/mL; in [13], 1 µg/mL; in data set [14], 2 µg/mL; in [15], 1 µg/mL; in data set [16] it was 2 µg/mL; in data set [17], 1 µg/mL. For the same compound, in data set [19], the “MIC of 6027” value is 4 µg/mL. The “reduction of parasite loads in lesions compared to the control” value in data set [5] (limiting dilution assay, FIG. 2) is reported as “about 3 orders of magnitude”. For the same compound, in [5] (vs vehicle (DMSO), where lesions increased, FIG. 1), the “volume of the induced CL lesions over time” value is recorded as “gradually reduced”. The compound also showed an IC50 at 68 h in [7] of 1.34 µM. In addition, the “MIC” value in data set [8] came out at 1 µg/mL (≈ 0.847 µM); in data set [18] it was 2 µg/mL (≈ 1.69 µM). In addition, the “T. rubrum (ATCC 10218) MIC” value in [10] is 32 µg/mL. Besides, the “T. mentagrophytes (ATCC 9533) MIC” value in [11] came to 16 µg/mL.

As usually defined, the IC50 is the concentration at which inhibition is half-maximal.
